Assays:
[1] = target: T1, mTORC1 (Homo sapiens, UniProt P42345+P62942); experiment: Inhibition assay for mTORC1: phosphorylation of pS6K at Thr389, AlphaLISA SureFire in PC3 cells; type: cell-based; conditions: PC3 cells, 24 hours treatment, pS6K Thr389; analogs substituted at C40 and C16 (C16 diastereomer mixtures not isolated); read-out: pIC50 mTORC1 (converted)
T1 construct: endogenous in cells; host or cells: PC3 cells (human prostate adenocarcinoma)
In short: (§1)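 Human prostate adenocarcinoma PC3 cells treated with compounds for 24 h. AlphaLISA SureFire read-out of pS6K Thr389 for mTORC1 and pAkt Ser473 for mTORC2, from which IC50s were derived.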

[2] = target: T2, mTORC2 (Homo sapiens, UniProt P42345+P62942); experiment: Inhibition assay for mTORC2: phosphorylation of pAkt at Ser473, AlphaLISA SureFire in PC3 cells; type: cell-based; conditions: PC3 cells, 24 hours treatment, analogs substituted at C40 and C16 (C16 diastereomer mixtures not isolated), read-out: pIC50 mTORC2 (converted)
T2 construct: endogenous in cells; host or cells: PC3 cells (human prostate adenocarcinoma)
In short: as §1

Work on COCCOC1C[C@@H]2CC[C@@H](C)[C@@](O)(O2)C(=O)C(=O)N2CCCCC2C(=O)O[C@H]([C@H](C)C[C@@H]2CC[C@@H](OCCCN3CCOCC3)[C@H](OC)C2)CC(=O)[C@H](C)/C=C(\C)[C@@H](O)[C@@H](OC)C(=O)[C@H](C)C[C@H](C)/C=C/C=C/C=C/1C (some centres unmarked) [Compound 48] yielded an IC50 [1] of under 0.000316 µM and an IC50 [2] of 1 to 10 µM.

Reference: patent publication US12565505B2, “mTORC modulators and uses thereof” (Aeovian Pharmaceuticals, Inc., priority 2019, dated 2026)
